Reference: US7652010B2 (priority 2004, dated 2010)

Question: With C(#Cc1ccc(OC2CN3CCC2CC3)cc1)c1ccccc1.O=C(O)/C=C/C(=O)O (racemic) as the compound, how does the melting point read?
Answer: Its melting point is 126.9 to 127.3 °C.

Question: Which melting point does the source give for CC(=O)Nc1ccc(C#Cc2ccc(OC3CN4CCC3CC4)nn2)cc1 (racemic) [Compound C6, (±)-N-{4-[6-(1-Aza-bicyclo[2.2.2]oct-3-yloxy)-pyridazin-3-ylethynyl]-phenyl}-acetamide free base] here?
Answer: The melting point was 169.5 to 175.4 °C.

Question: With Nc1cccc(C#Cc2ccc(OC3CN4CCC3CC4)nn2)c1 (racemic) [Compound C7, (±)-3-[6-(1-Aza-bicyclo[2.2.2]oct-3-yloxy)-pyridazin-3-ylethynyl]-phenylamine free base] as the compound, how does the melting point read?
Answer: Its melting point is 152.4 to 158.1 °C.

Question: Which melting point does the source give for Nc1ccc(C#Cc2ccc(OC3CN4CCC3CC4)nn2)cc1 (racemic) [Compound C8, (±)-4-[6-(1-Aza-bicyclo[2.2.2]oct-3-yloxy)-pyridazin-3-ylethynyl]-phenylamine free base] here?
Answer: Its melting point is 212 to 220 °C.

Question: For C(#Cc1ccc(OC2CN3CCC2CC3)nn1)c1ccsc1.O=C(O)/C=C/C(=O)O (racemic) [Compound C10, (±)-3-(6-Thiophen-3-ylethynyl-pyridazin-3-yloxy)-1-aza-bicyclo[2.2.2]octane fumaric acid salt], which melting point is on record?
Answer: Its melting point is 133.9 to 141.6 °C.
